Reference: US20200131454A1, “ALCOHOL CONTAINING BIOFIILM-INHIBITING NON-ANTIMICROBIAL CLEANSING COMPOSITION” (GOJO Industries, Inc., priority 2018, published 2020)

Tests used:
[1] = Forearm controlled application test (FCAT), skin hydration by Corneometer; type: in vivo, human
Procedure: (§1) Topical compositions were tested on skin samples for their ability to improve or maintain skin hydration and limit transepidermal water loss (TEWL). Measurement of the TEWL, expressed in grams per square meter and per hour, is used for studying the water barrier function of the human skin. The more perfect the skin protective coat, the higher the water content and the lower the TEWL. For each of the tests, a negative control was used, which included treatment with 8% SLS. An untreated skin sample was also tested for comparison. The tests were performed using the forearm controlled application test (FCAT) methodology. The various samples were applied to test sites on a forearm over the course of several days. On each day, up to six applications were made and the change in TEWL and hydration levels were recorded. The hydration levels were measured using a Corneometer® based on capacitance measurement of a dielectric medium. The Corneometer® measures the change in the dielectric constant due to skin surface hydration changing the capacitance of a precision capacitor. The measurement can detect even slight changes in the hydration level.
The change in TEWL and hydration levels represent the change observed for that particular sample compared to a baseline (the transepidermal water content or hydration level prior to treatment). […]

[2] = Forearm controlled application test (FCAT), transepidermal water loss (TEWL); type: in vivo, human
Procedure: as §1, with “level. The change in TEWL and hydration levels represent the change observed for that particular sample compared to a baseline (the transepidermal water content or hydration level prior to treatment). […]” for “level.”

- hydration levels ([1]; Example 1, FIG. 5, change compared to baseline): lowest hydration levels
- change in hydration levels ([1]; Example 2, FIG. 8, wet and dry application, 3 and 5 days of treatment): significant reduction in hydration level
- TEWL ([2]; Example 1, FIG. 6, change compared to baseline): highest TEWL
- change in TEWL ([2]; Example 2, FIG. 7, wet and dry application, 3 and 5 days of treatment): significant TEWL
Structure (SMILES): CCCCCCCCCCCCOS(=O)(=O)[O-].[Na+] [negative control, SLS]
